Patent publication US20230228744A1, “DRY EYE DISEASE BIOMARKERS AND THEIR USE FOR TREATMENT” (Aldeyra Therapeutics, Inc., priority 2020, published 2023)

Tested on: 4-hydroxynonenal protein adducts (HNE) in tears
Assay: Phase 2/3 (TRANQUILITY) run-in cohort, ELISA of HNE-protein adducts in tears before and after dosing
Type: in vivo, human
Settings: single doses of 0.25% reproxalap, average of two doses (Day 1 first dose, Day 2 post chamber), n=9; vehicle: increase of 32 pg/mL (n=7)
Method: [table] Tear RASP levels will be assessed via MMRM of change from pre to post dose on Day 1 and Day 2, with baseline (pre-dose) scores as a covariate, and dose and test article group as factors. Secondary Endpoints: • Visual analog scale eye dryness score assessed over 24 hours after first dose on Day 1, and over 90 minutes in CAE® (Key Secondary Symptom Endpoint) • Ora Calibra® Ocular Discomfort Scale assessed over 24 hours after first dose on Day 1, and over 90 minutes in CAE® • Ocular Discomfort & 4-Symptom Questionnaire assessed over 24 hours after first dose on Day 1, and before and after CAE® • Ora Calibra® Conjunctival Allergen Challenge Ocular Itching Scale assessed over 24 hours after first dose on Day 1, and before and after CAE® • Schirmer's Test change from baseline before and after the final dose on Day 1 • Change in tear RASP levels before and after Dose 1 and 2 on Day 1 and Dose 3 on Day 2. Conjunctival redness over 24 hours after first dose on Day 1. Visit 2 (Day 1, Baseline and In-Office Dosing) • Medical/Medication Update • Adverse Event Query • Visual Acuity (ETDRS) • Slit Lamp Biomicroscopy • Symptom Questionnaires • a. Ocular Discomfort & 4-Symptom Questionnaire • b. […] Ora Calibra® Conjunctival Allergen Challenge Ocular Itching Scale • Slit Lamp Biomicroscopy • Intraocular Pressure • Dilated Exam • Study Exit Data for the run-in cohort was obtained and analyzed. […]

## CC(C)(O)c1nc2ccc(Cl)cc2cc1N [reproxalap, Reproxalap]
  average decline of HNE levels in tears, pre-dose to post-dose: 1018 pg/mL
